Test results taken from ChEMBL document CHEMBL1152085, “Novel 3-deoxy-3-descladinosyl-6-O-methyl erythromycin a analogues. Synthesis and in vitro activity” (1997).
In brackets after ≈: the same amount, converted by molar mass.

Assays:
Format in all cases: functional
[1] = system: Staphylococcus epidermidis; assay: Tested in vitro for minimum inhibitory concentration to produce antibacterial activity against Staphylococcus epidermidis 3519
Escherichia coli [2] = assay: Tested in vitro for minimum inhibitory concentration to produce antibacterial activity against Escherichia coli JUHL
Streptococcus agalactiae [3] = assay: Tested in vitro for minimum inhibitory concentration to produce antibacterial activity against Streptococcus agalactiae CMX 508
Staphylococcus aureus [4] = assay: Tested in vitro for minimum inhibitory concentration to produce antibacterial activity against Staphylococcus aureus A-5278 in presence of erythromycin A
Staphylococcus aureus [5] = assay: Tested in vitro for minimum inhibitory concentration to produce antibacterial activity against Staphylococcus aureus A-5278
Streptococcus pyogenes [6] = assay: Tested in vitro for minimum inhibitory concentration to produce antibacterial activity against Streptococcus pyogenes 930 in presence of erythromycin A
Streptococcus pyogenes [7] = assay: Tested in vitro for minimum inhibitory concentration to produce antibacterial activity against Streptococcus pyogenes PIU 2548
Enterococcus faecium [8] = assay: Tested in vitro for minimum inhibitory concentration to produce antibacterial activity against Enterococcus faecium ATCC 8043 in presence of erythromycin A
Streptococcus pyogenes [9] = assay: Tested in vitro for minimum inhibitory concentration to produce antibacterial activity against Streptococcus pyogenes EES61 in presence of erythromycin A
Staphylococcus aureus [10] = assay: Tested in vitro for minimum inhibitory concentration to produce antibacterial activity against Staphylococcus aureus 1775
Streptococcus agalactiae [11] = assay: Tested in vitro for minimum inhibitory concentration to produce antibacterial activity against Streptococcus agalactiae CMX 508 in presence of erythromycin A
Enterococcus faecium [12] = assay: Tested in vitro for minimum inhibitory concentration to produce antibacterial activity against Enterococcus faecium ATCC 8043
Staphylococcus aureus [13] = assay: Tested in vitro for minimum inhibitory concentration to produce antibacterial activity against Staphylococcus aureus ATCC 6538P in presence of erythromycin A
Escherichia coli [14] = assay: Tested in vitro for minimum inhibitory concentration to produce antibacterial activity against Escherichia coli JUHL in presence of erythromycin A
Staphylococcus aureus [15] = assay: Tested in vitro for minimum inhibitory concentration to produce antibacterial activity against Staphylococcus aureus CMX 553
Staphylococcus aureus [16] = assay: Tested in vitro for minimum inhibitory concentration to produce antibacterial activity against Staphylococcus aureus 1775 in presence of erythromycin A
Staphylococcus aureus [17] = assay: Tested in vitro for minimum inhibitory concentration to produce antibacterial activity against Staphylococcus aureus CMX 553 in presence of erythromycin A
Escherichia coli [18] = assay: Tested in vitro for minimum inhibitory concentration to produce antibacterial activity against Escherichia coli SS in presence of erythromycin A
Streptococcus pyogenes [19] = assay: Tested in vitro for minimum inhibitory concentration to produce antibacterial activity against Streptococcus pyogenes 930
Streptococcus pyogenes [20] = assay: Tested in vitro for minimum inhibitory concentration to produce antibacterial activity against Streptococcus pyogenes EES61
Staphylococcus aureus [21] = assay: Tested in vitro for minimum inhibitory concentration to produce antibacterial activity against Staphylococcus aureus NCTC-10649M in presence of erythromycin A
Streptococcus pyogenes [22] = assay: Tested in vitro for minimum inhibitory concentration to produce antibacterial activity against Streptococcus pyogenes PIU 2548 in presence of erythromycin A
Staphylococcus aureus [23] = assay: Tested in vitro for minimum inhibitory concentration to produce antibacterial activity against Staphylococcus aureus NCTC-10649M
Staphylococcus aureus [24] = assay: Tested in vitro for minimum inhibitory concentration to produce antibacterial activity against Staphylococcus aureus A5177
Staphylococcus aureus [25] = assay: Tested in vitro for minimum inhibitory concentration to produce antibacterial activity against Staphylococcus aureus CMX 642A
Streptococcus equinus [26] = assay: Tested in vitro for minimum inhibitory concentration to produce antibacterial activity against Streptococcus bovis A-5169
Escherichia coli [27] = assay: Tested in vitro for minimum inhibitory concentration to produce antibacterial activity against Escherichia coli SS
Staphylococcus aureus [28] = assay: Tested in vitro for minimum inhibitory concentration to produce antibacterial activity against Staphylococcus aureus ATCC 6538P
[29] = system: Staphylococcus epidermidis; assay: Tested in vitro for minimum inhibitory concentration to produce antibacterial activity against Staphylococcus epidermidis 3519 in presence of erythromycin A
Staphylococcus aureus [30] = assay: Tested in vitro for minimum inhibitory concentration to produce antibacterial activity against Staphylococcus aureus A5177 in presence of erythromycin A
Staphylococcus aureus [31] = assay: Tested in vitro for minimum inhibitory concentration to produce antibacterial activity against Staphylococcus aureus CMX 642A in presence of erythromycin A
Streptococcus equinus [32] = assay: Tested in vitro for minimum inhibitory concentration to produce antibacterial activity against Streptococcus bovis A-5169 in presence of erythromycin A

CC[C@H]1OC(=O)[C@H](C)[C@@H](OC(=S)SC)[C@H](C)[C@@H](O[C@@H]2O[C@H](C)C[C@H](N(C)C)[C@H]2O)[C@](C)(OC)C[C@@H](C)C(=O)[C@H](C)[C@@H](O)[C@]1(C)O
MIC [1]: 25 µg/mL (≈ 36.8 µM)
MIC (Escherichia coli [2]): > 100 µg/mL
MIC (Streptococcus agalactiae [3]): 0.78 µg/mL (≈ 1.15 µM)
MIC (Staphylococcus aureus [4]): > 100 µg/mL
MIC (Staphylococcus aureus [5]): > 100 µg/mL
MIC (Streptococcus pyogenes [6]): > 100 µg/mL
MIC (Streptococcus pyogenes [7]): 1.56 µg/mL (≈ 2.29 µM)
MIC (Enterococcus faecium [8]): 0.05 µg/mL
MIC (Streptococcus pyogenes [9]): 0.02 µg/mL
MIC (Staphylococcus aureus [10]): > 100 µg/mL
MIC (Streptococcus agalactiae [11]): 0.02 µg/mL
MIC (Enterococcus faecium [12]): 6.2 µg/mL (≈ 9.12 µM)
MIC (Staphylococcus aureus [13]): 0.2 µg/mL
MIC (Escherichia coli [14]): 50 µg/mL
MIC (Staphylococcus aureus [15]): 25 µg/mL (≈ 36.8 µM)
MIC (Staphylococcus aureus [16]): > 100 µg/mL
MIC (Staphylococcus aureus [17]): 0.2 µg/mL
MIC (Escherichia coli [18]): 0.2 µg/mL
MIC (Streptococcus pyogenes [19]): 100 µg/mL (≈ 147 µM)
MIC (Streptococcus pyogenes [20]): 0.78 µg/mL (≈ 1.15 µM)
MIC (Staphylococcus aureus [21]): 0.2 µg/mL
MIC (Streptococcus pyogenes [22]): 6.2 µg/mL
MIC (Staphylococcus aureus [23]): 12.5 µg/mL (≈ 18.4 µM)
MIC (Staphylococcus aureus [24]): 25 µg/mL (≈ 36.8 µM)
MIC (Staphylococcus aureus [25]): 25 µg/mL (≈ 36.8 µM)
MIC (Streptococcus equinus [26]): 0.39 µg/mL (≈ 0.574 µM)
MIC (Escherichia coli [27]): 0.39 µg/mL (≈ 0.574 µM)
MIC (Staphylococcus aureus [28]): 25 µg/mL (≈ 36.8 µM)
MIC [29]: 0.2 µg/mL
MIC (Staphylococcus aureus [30]): 3.1 µg/mL
MIC (Staphylococcus aureus [31]): 0.2 µg/mL
MIC (Streptococcus equinus [32]): 0.02 µg/mL

CCO/N=C1\[C@H](C)C[C@@](C)(OC)[C@H](O[C@@H]2O[C@H](C)C[C@H](N(C)C)[C@H]2O)[C@@H](C)C[C@@H](C)C(=O)O[C@H](CC)[C@@](C)(O)[C@H](O)[C@H]1C
MIC [1]: 25 µg/mL (≈ 40.5 µM)
MIC (Escherichia coli [2]): > 100 µg/mL
MIC (Streptococcus agalactiae [3]): 3.1 µg/mL (≈ 5.03 µM)
MIC (Staphylococcus aureus [4]): > 100 µg/mL
MIC (Staphylococcus aureus [5]): > 100 µg/mL
MIC (Streptococcus pyogenes [6]): > 100 µg/mL
MIC (Streptococcus pyogenes [7]): 25 µg/mL (≈ 40.5 µM)
MIC (Enterococcus faecium [8]): 0.05 µg/mL
MIC (Streptococcus pyogenes [9]): 0.02 µg/mL
MIC (Staphylococcus aureus [10]): > 100 µg/mL
MIC (Streptococcus agalactiae [11]): 0.1 µg/mL
MIC (Enterococcus faecium [12]): 25 µg/mL (≈ 40.5 µM)
MIC (Staphylococcus aureus [13]): 0.39 µg/mL
MIC (Escherichia coli [14]): 25 µg/mL
MIC (Staphylococcus aureus [15]): 50 µg/mL (≈ 81.1 µM)
MIC (Staphylococcus aureus [16]): > 100 µg/mL
MIC (Staphylococcus aureus [17]): 0.39 µg/mL
MIC (Escherichia coli [18]): 0.2 µg/mL
MIC (Streptococcus pyogenes [19]): > 100 µg/mL
MIC (Streptococcus pyogenes [20]): 3.1 µg/mL (≈ 5.03 µM)
MIC (Staphylococcus aureus [21]): 0.39 µg/mL
MIC (Streptococcus pyogenes [22]): 3.1 µg/mL
MIC (Staphylococcus aureus [23]): 12.5 µg/mL (≈ 20.3 µM)
MIC (Staphylococcus aureus [24]): 25 µg/mL (≈ 40.5 µM)
MIC (Staphylococcus aureus [25]): 50 µg/mL (≈ 81.1 µM)
MIC (Streptococcus equinus [26]): 3.1 µg/mL (≈ 5.03 µM)
MIC (Escherichia coli [27]): 3.1 µg/mL (≈ 5.03 µM)
MIC (Staphylococcus aureus [28]): 25 µg/mL (≈ 40.5 µM)
MIC [29]: 0.39 µg/mL
MIC (Staphylococcus aureus [30]): 3.1 µg/mL
MIC (Staphylococcus aureus [31]): 0.39 µg/mL
MIC (Streptococcus equinus [32]): 0.01 µg/mL

CC[C@H]1OC(=O)[C@H](C)C[C@H](C)[C@@H](O[C@@H]2O[C@H](C)C[C@H](N(C)C)[C@H]2O)[C@](C)(OC)C[C@@H](C)C(=O)/C(C)=C/[C@]1(C)O
MIC [1]: > 100 µg/mL
MIC (Escherichia coli [2]): > 100 µg/mL
MIC (Streptococcus agalactiae [3]): 25 µg/mL (≈ 45 µM)
MIC (Staphylococcus aureus [4]): > 100 µg/mL
MIC (Staphylococcus aureus [5]): > 100 µg/mL
MIC (Streptococcus pyogenes [6]): 12.5 µg/mL
MIC (Streptococcus pyogenes [7]): > 100 µg/mL
MIC (Enterococcus faecium [8]): 0.2 µg/mL
MIC (Streptococcus pyogenes [9]): 0.01 µg/mL
MIC (Staphylococcus aureus [10]): > 100 µg/mL
MIC (Streptococcus agalactiae [11]): 0.02 µg/mL
MIC (Enterococcus faecium [12]): > 100 µg/mL
MIC (Staphylococcus aureus [13]): 0.39 µg/mL
MIC (Escherichia coli [14]): 50 µg/mL
MIC (Staphylococcus aureus [15]): > 100 µg/mL
MIC (Staphylococcus aureus [16]): > 100 µg/mL
MIC (Staphylococcus aureus [17]): 0.39 µg/mL
MIC (Escherichia coli [18]): 0.78 µg/mL
MIC (Streptococcus pyogenes [19]): > 100 µg/mL
MIC (Streptococcus pyogenes [20]): 12.5 µg/mL (≈ 22.5 µM)
MIC (Staphylococcus aureus [21]): 0.39 µg/mL
MIC (Streptococcus pyogenes [22]): 12.5 µg/mL
MIC (Staphylococcus aureus [23]): > 100 µg/mL
MIC (Staphylococcus aureus [24]): > 100 µg/mL
MIC (Staphylococcus aureus [25]): > 100 µg/mL
MIC (Streptococcus equinus [26]): > 100 µg/mL
MIC (Escherichia coli [27]): > 100 µg/mL
MIC (Staphylococcus aureus [28]): > 100 µg/mL
MIC [29]: 0.39 µg/mL
MIC (Staphylococcus aureus [30]): 3.1 µg/mL
MIC (Staphylococcus aureus [31]): 0.39 µg/mL
MIC (Streptococcus equinus [32]): 0.2 µg/mL

CC[C@H]1OC(=O)[C@H](C)[C@@H](O[C@H]2C[C@@](C)(OC)[C@@H](O)[C@H](C)O2)[C@H](C)[C@@H](O[C@@H]2O[C@H](C)C[C@H](N(C)C)[C@H]2O)[C@](C)(OC)C[C@@H](C)C(=O)[C@H](C)[C@@H](O)[C@]1(C)O [CLARITHROMYCIN]
MIC [1]: 0.12 µg/mL (≈ 0.16 µM)
MIC (Escherichia coli [2]): 100 µg/mL (≈ 134 µM)
MIC (Streptococcus agalactiae [3]): 0.02 µg/mL (≈ 0.0267 µM)
MIC (Staphylococcus aureus [4]): > 100 µg/mL
MIC (Staphylococcus aureus [5]): > 100 µg/mL
MIC (Streptococcus pyogenes [6]): > 100 µg/mL
MIC (Streptococcus pyogenes [7]): 8 µg/mL (≈ 10.7 µM)
MIC (Enterococcus faecium [8]): 0.05 µg/mL
MIC (Streptococcus pyogenes [9]): 0.01 µg/mL
MIC (Staphylococcus aureus [10]): > 100 µg/mL
MIC (Streptococcus agalactiae [11]): 0.02 µg/mL
MIC (Enterococcus faecium [12]): 0.05 µg/mL (≈ 0.0668 µM)
MIC (Staphylococcus aureus [13]): 0.2 µg/mL
MIC (Escherichia coli [14]): 50 µg/mL
MIC (Staphylococcus aureus [15]): 0.12 µg/mL (≈ 0.16 µM)
MIC (Staphylococcus aureus [16]): > 100 µg/mL
MIC (Staphylococcus aureus [17]): 0.12 µg/mL
MIC (Escherichia coli [18]): 0.39 µg/mL
MIC (Streptococcus pyogenes [19]): > 100 µg/mL
MIC (Streptococcus pyogenes [20]): 0.01 µg/mL (≈ 0.0134 µM)
MIC (Staphylococcus aureus [21]): 0.03 µg/mL
MIC (Streptococcus pyogenes [22]): 8 µg/mL
MIC (Staphylococcus aureus [23]): 0.03 µg/mL (≈ 0.0401 µM)
MIC (Staphylococcus aureus [24]): 1.56 µg/mL (≈ 2.09 µM)
MIC (Staphylococcus aureus [25]): 0.03 µg/mL (≈ 0.0401 µM)
MIC (Streptococcus equinus [26]): 0.01 µg/mL (≈ 0.0134 µM)
MIC (Escherichia coli [27]): 0.39 µg/mL (≈ 0.521 µM)
MIC (Staphylococcus aureus [28]): 0.2 µg/mL (≈ 0.267 µM)
MIC [29]: 0.03 µg/mL
MIC (Staphylococcus aureus [30]): 3.1 µg/mL
MIC (Staphylococcus aureus [31]): 0.03 µg/mL
MIC (Streptococcus equinus [32]): 0.01 µg/mL
